Laboratory results as given in patent publication US8367687B2, “Pyrazole derivatives” (Novartis AG, priority 2007, dated 2013).
Like-named read-outs stand apart in the source and are kept apart here.

Tests used:
[1] = molecular target: CDK4 (Homo sapiens, UniProt P11802); assay: CDK4 HTRF; assay type: biochemical
[2] = molecular target: CDK2 cyA (Homo sapiens, UniProt P24941); assay: CDK2 cyA IMAP; assay type: biochemical
[3] = molecular target: hCDK1/B (Homo sapiens, UniProt P06493); assay: hCDK1/B; assay type: biochemical
hCDK1/B, sequence (P06493 whole entry): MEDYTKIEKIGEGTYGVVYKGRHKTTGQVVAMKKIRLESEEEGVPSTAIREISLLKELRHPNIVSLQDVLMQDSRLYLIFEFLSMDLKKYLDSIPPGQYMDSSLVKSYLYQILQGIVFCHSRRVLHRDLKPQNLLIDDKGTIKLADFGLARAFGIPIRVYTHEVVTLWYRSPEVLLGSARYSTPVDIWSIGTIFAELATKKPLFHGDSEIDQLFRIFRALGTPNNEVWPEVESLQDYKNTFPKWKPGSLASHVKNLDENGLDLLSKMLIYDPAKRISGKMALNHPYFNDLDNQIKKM
hCDK1/B, sequence (P14635 whole entry partner): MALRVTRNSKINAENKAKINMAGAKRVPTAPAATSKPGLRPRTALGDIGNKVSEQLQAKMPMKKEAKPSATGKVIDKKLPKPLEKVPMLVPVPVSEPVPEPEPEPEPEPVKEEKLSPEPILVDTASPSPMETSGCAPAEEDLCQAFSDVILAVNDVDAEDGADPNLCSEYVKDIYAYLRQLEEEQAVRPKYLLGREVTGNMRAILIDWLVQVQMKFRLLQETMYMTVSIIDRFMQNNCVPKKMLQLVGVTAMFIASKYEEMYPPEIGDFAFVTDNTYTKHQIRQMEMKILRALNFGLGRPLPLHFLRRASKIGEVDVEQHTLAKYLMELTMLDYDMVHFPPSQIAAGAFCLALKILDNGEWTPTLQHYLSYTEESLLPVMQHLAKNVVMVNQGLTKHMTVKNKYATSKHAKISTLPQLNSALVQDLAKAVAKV

[4] = system: p-pRb/S780; assay: p-pRb/S780 ELISA Cellular Assay (CDK4 ELISA assay); assay type: cell-based; conditions: cells treated for 24 hrs
Description: Biological Activity p-pRb/S780 ELISA Cellular Assay
Maxisorp plates (Nunc 442404) are coated with 50 ul of 1 ug/mL total phospholated Retinoblast Protein (pRb) antibody (4H1 Cell Signaling 9309L) diluted in DPBS (Phosphate Buffered Saline) overnight at 4° C. The next day plates are blocked with Superblock in TBST (Pierce 37535) for one hour to overnight—changing block once during that time. Cells are plated at 50-60% confluency in a 96 well plate (Corning 3585) in 100 uL complete media (media containing fetal bovine serum (Gibco 1600-044), 2 mM L-Glutamine (Gibco 25030), and 1% Penicillin/Streptomycin (Gibco 15140-122) and grown overnight in a humidified chamber at 37° C. and 5% CO2. Compounds (in DMSO) are diluted in media to create a 7 point dilution series of compound with concentrations ranging from 110 uM to 0.027 uM. 10 ul of the diluted compounds are added to the cells, with final concentrations on cells ranging from 10 uM to 0.002 uM. Cells are treated for 24 hrs in a humidified chamber at 37° C. and 5% CO2. Following compound incubation, cells are lysed with 40 uL/well lysis buffer (50 mM Tris-HCL pH 7.5 (Invitrogen 15567-027), 120 mM NaCl (Promega V4221), 1 mM EDTA (Gibco 15575-038), 6 mM EGTA (Fisher 02783-100), 1% Nonidet P40 (Fluka R02771). Plates are placed on Titerplate shaker (Labline model 4625) for 5 minutes at 4° C. to lyse cells. After lysis, 10 ul of cell lysate and 50 ul 1×PBS/10% Superblock (Gibco 10010 and Pierce 37535) is added to each well of the precoated and blocked Maxisorp plate and allowed to bind at room temperature for 2 hours on Oribtron Rotator II (Boekel Industries Model 260250). Plates are then washed 3× with 1×TBST (Teknova T9201) using Biotek platewasher equipped with a Biostack. The final wash is not aspirated. The final wash is removed by flicking off and tapping plate on paper towels. ppRbS780 antibody (Cell Signaling 9307L) is diluted 1:1000 in 1×PBS/10% Superblock (Gibco 10010 and Pierce 37535) and 50 ul is added to each well. Plates are then incubated 1 hour on Oribtron Rotator II (Boekel Industries Model 260250). Plates are then washed as previously described. Goat anti-rabbit HRP (Promega W401B) is diluted 1:2500 1×PBS/10% Superblock (Gibco 10010 and Pierce 37535) and 50 ul is added to each well. Plates are then incubated 30 minutes on Oribtron Rotator II. Plates are then washed as previously described. 50 uL Ultra TMB ELISA (Pierce 34028) is then added to each well. Plates are incubated 5-20 minutes until blue color develops. 50 ul 2M Sulfuric acid (Mallinckrodt 2468-46) is then added to each well to stop the reaction. Absorbance at 450 nm for each plate is read on Spectramax Plus (Molecular Devices).

[5] = Table 2, read-out: CDK4 HTRF/ IC50
[6] = Table 2, read-out: CDK2cyA IMAP/ IC50
[7] = Table 2, read-out: p_pRb Cap EL/ IC50_ppRbinh
[8] = Table 1, read-out: CDK2 cyA IMAP
[9] = Table 1, read-out: CDK4 ELISA assay IC50

CDK4, sequence (P11802 whole entry): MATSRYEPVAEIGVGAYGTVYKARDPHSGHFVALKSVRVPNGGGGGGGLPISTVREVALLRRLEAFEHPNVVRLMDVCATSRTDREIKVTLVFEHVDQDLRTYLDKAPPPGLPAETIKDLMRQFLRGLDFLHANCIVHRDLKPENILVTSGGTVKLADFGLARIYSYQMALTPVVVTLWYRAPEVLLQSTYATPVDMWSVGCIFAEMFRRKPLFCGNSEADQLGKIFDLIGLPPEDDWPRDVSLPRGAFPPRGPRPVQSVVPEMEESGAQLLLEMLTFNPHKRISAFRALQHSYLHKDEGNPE
CDK4, sequence (P24385 whole entry partner): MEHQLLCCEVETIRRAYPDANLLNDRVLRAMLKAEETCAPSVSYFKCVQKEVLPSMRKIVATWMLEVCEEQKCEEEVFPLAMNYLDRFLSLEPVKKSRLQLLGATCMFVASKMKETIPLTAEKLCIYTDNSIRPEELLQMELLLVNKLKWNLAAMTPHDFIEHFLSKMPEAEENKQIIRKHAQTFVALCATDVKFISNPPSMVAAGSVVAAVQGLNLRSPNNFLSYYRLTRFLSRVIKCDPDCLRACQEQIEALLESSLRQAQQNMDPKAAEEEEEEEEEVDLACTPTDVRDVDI

Row | Structure (SMILES) | IC50 [1, 5] [µM] | IC50 [2, 6] [µM] | IC50 ([3]; Table 2) [µM] | IC50 [4, 7] [µM] | IC50 ([1]; Table 1, read-out: CDK4 HTRF) [µM] | IC50 [2, 8] [µM] | IC50 ([3]; Table 1) [µM] | IC50 [4, 9] [µM]
1 | Cc1n[nH]cc1-c1ccnc(NCCN2CCCC2)n1 [Example 109] | < 10 | ≥ 15 | ≥ 15 | < 15 |  |  |  | 
2 | Cc1n[nH]cc1-c1ccnc(NCc2cccnc2)n1 [Example 127] | < 10 | < 10 | < 15 | < 15 |  |  |  | 
3 | c1cc(-c2cn[nH]c2C2CCCC2)cc(NCCN2CCCCC2)n1 [Example 61] |  |  |  |  | < 5 | ≥ 15 | ≥ 15 | < 15
4 | Cc1n[nH]cc1-c1ccnc(NCC2CC2)n1 [Example 124] | < 5 | < 10 | < 10 | < 15 |  |  |  | 
5 | Cc1n[nH]cc1-c1ccnc(NC2CC2)n1 [Example 97] | < 5 | < 10 | < 10 | < 15 |  |  |  | 
6 | COc1cccc(OC)c1CNc1nccc(-c2c[nH]nc2C(C)C)n1 [Example 156] | < 15 | ≥ 15 | ≥ 15 | < 15 |  |  |  | 
7 | COc1ccccc1CNc1nccc(-c2c[nH]nc2C)n1 [Example 130] | < 5 | < 15 | < 10 | < 15 |  |  |  | 
8 | Cc1ccc(CNc2nccc(-c3c[nH]nc3C)n2)cc1 [Example 117] | < 10 | ≥ 15 | ≥ 15 | < 15 |  |  |  | 
9 | Cc1n[nH]cc1-c1ccnc(NCCc2c[nH]c3ccccc23)n1 [Example 116] | < 5 | < 10 | < 5 | < 15 |  |  |  | 
10 | Cc1n[nH]cc1-c1ccnc(NCCN2CCOCC2)n1 [Example 99] | < 10 | ≥ 15 | ≥ 15 | < 15 |  |  |  | 
11 | CC(C)c1n[nH]cc1-c1ccnc(NC2CCCc3ccccc32)n1 (stereo not shown) [Example 169] | < 0.05 | < 1 | < 5 | < 5 |  |  |  | 
12 | CC(C)c1[nH]ncc1-c1ccnc(NCCN2CCCC2)c1 [Example 17] |  |  |  |  | < 5 | ≥ 15 | ≥ 15 | < 15
13 | Cc1n[nH]cc1-c1ccnc(NCc2ccccn2)n1 [Example 126] | < 15 | ≥ 15 | ≥ 15 | < 15 |  |  |  | 
14 | Cc1n[nH]cc1-c1ccnc(NCCC#N)n1 [Example 96] | < 5 | < 15 | < 15 | < 15 |  |  |  | 
15 | Cc1n[nH]cc1-c1ccnc(NC2CCC2)n1 [Example 101] | < 1 | < 5 | < 5 | < 15 |  |  |  | 
16 | Cc1n[nH]cc1-c1ccnc(NCCCN(C)C)n1 [Example 118] | < 15 | ≥ 15 | ≥ 15 | < 15 |  |  |  | 
17 | Cc1n[nH]cc1-c1ccnc(NCc2ccccc2)n1 [Example 93] | < 5 | < 15 | < 10 | < 15 |  |  |  | 
18 | COCCNc1nccc(-c2c[nH]nc2C)n1 [Example 120] | < 15 | ≥ 15 | ≥ 15 | < 15 |  |  |  | 
19 | Cc1n[nH]cc1-c1ccnc(NCCOc2ccccc2)n1 [Example 98] | < 5 | < 15 | < 15 | < 15 |  |  |  | 
20 | CC(C)c1[nH]ncc1-c1ccnc(NCCCN2CCOCC2)c1 [Example 36] |  |  |  |  | < 10 | ≥ 15 | ≥ 15 | < 15
21 | CC(C)c1n[nH]cc1-c1ccnc(NC2CCN(C)CC2)n1 [Example 139] | < 0.05 | < 1 | < 0.5 | < 5 |  |  |  | 
22 | Cc1n[nH]cc1-c1ccnc(NCCN(C)C)n1 [Example 94] | < 10 | ≥ 15 | ≥ 15 | < 15 |  |  |  | 

More lines, now with the values ahead:

Row | IC50 [1, 5] [µM] | IC50 [2, 6] [µM] | IC50 ([3]; Table 2) [µM] | IC50 [4, 7] [µM] | IC50 ([1]; Table 1, read-out: CDK4 HTRF) [µM] | IC50 [2, 8] [µM] | IC50 ([3]; Table 1) [µM] | IC50 [4, 9] [µM] | Structure (SMILES)
23 | < 10 | ≥ 15 | ≥ 15 | < 15 |  |  |  |  | Cc1n[nH]cc1-c1ccnc(NCCN2CCCCC2)n1 [Example 111]
24 | < 15 | ≥ 15 | ≥ 15 | < 15 |  |  |  |  | COc1cc(CNc2nccc(-c3c[nH]nc3C)n2)cc(OC)c1 [Example 133]
25 |  |  |  |  | < 5 | < 10 | < 10 | < 15 | Cc1ccccc1CNc1cc(-c2cn[nH]c2C2CCCCCC2)ccn1 [Example 66]
26 |  |  |  |  | < 0.1 | < 0.05 | < 0.1 | < 1 | CC(C)c1[nH]ncc1-c1ccnc(Nc2ccccc2)c1 [Example 48]
27 | < 0.05 | < 0.5 | < 5 | < 1 |  |  |  |  | CC(C)c1n[nH]cc1-c1ccnc(N[C@@H]2CCCc3ccccc32)n1 [Example 177]
28 | < 1 | < 5 | < 10 | < 15 |  |  |  |  | CCC(C)Nc1nccc(-c2c[nH]nc2C)n1 (stereo not shown) [Example 110]
29 | < 5 | < 15 | < 15 | < 15 |  |  |  |  | CC(=O)NCCNc1nccc(-c2c[nH]nc2C)n1 [Example 123]
30 |  |  |  |  | < 5 | ≥ 15 | ≥ 15 | < 15 | c1cc(-c2cn[nH]c2C2CCCC2)cc(NCCCN2CCOCC2)n1 [Example 65]
31 |  |  |  |  | < 5 | < 10 | < 10 | < 15 | CC(C)c1[nH]ncc1-c1ccnc(NCCOc2ccccc2)c1 [Example 21]
32 | < 0.05 | < 1 | < 1 | < 5 |  |  |  |  | CC(C)c1n[nH]cc1-c1ccnc(NC2CCc3ccccc32)n1 (stereo not shown) [Example 174]
33 | < 5 | < 15 | < 10 | < 15 |  |  |  |  | Cc1cc(C)n(CCNc2nccc(-c3c[nH]nc3C(C)C)n2)n1 [Example 149]
34 | < 5 | ≥ 15 | ≥ 15 | < 15 |  |  |  |  | CCN(CC)CCNc1nccc(-c2c[nH]nc2C(C)C)n1 [Example 144]
